In patent publication US9540299B2, “MTOR-independent activator of TFEB for autophagy enhancement and uses thereof” (Hong Kong Baptist University, priority 2015, dated 2017):

Tests used:
[1] = biological target: T1, MTOR-TFEB-YWHA interaction (Homo sapiens, UniProt P19484); test: Co-immunoprecipitation of MTOR and YWHA with Flag-TFEB in Hela cells; format: cell-based; conditions: Hela 3×Flag-TFEB cells, 1 μM, 12 h
T1 construct: expressed in transfected cells; host or cells: HeLa cells stably expressing 3×Flag-TFEB; MTOR and YWHA are endogenous
T1 sequence (P19484 1-476): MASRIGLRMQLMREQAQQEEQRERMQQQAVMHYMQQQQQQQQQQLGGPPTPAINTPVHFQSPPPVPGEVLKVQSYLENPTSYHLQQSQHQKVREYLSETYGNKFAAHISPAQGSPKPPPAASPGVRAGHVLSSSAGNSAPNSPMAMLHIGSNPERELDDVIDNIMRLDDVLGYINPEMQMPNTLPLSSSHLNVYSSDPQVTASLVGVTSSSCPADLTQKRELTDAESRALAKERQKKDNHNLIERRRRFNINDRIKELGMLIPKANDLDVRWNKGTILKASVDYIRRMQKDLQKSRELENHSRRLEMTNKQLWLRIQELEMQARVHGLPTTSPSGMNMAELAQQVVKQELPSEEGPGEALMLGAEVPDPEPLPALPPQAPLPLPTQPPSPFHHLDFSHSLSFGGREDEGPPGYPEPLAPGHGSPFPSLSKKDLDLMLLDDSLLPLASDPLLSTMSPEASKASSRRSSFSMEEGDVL
Protocol: Hela cells stably expressing 3×Flag-TFEB are treated with C1 (1 μM) for 12 h. Endogenous MTOR and YWHA are co-immunoprecipitated with Flag-TFEB. Western blots and levels of immunoprecipitated MTOR (FIG. 5A) and YWHA (FIG. 5B) normalized to their corresponding levels in whole cell lysates (WCL). Data are presented as the mean±SD from three independent experiments. *p<0.05 vs. the control. WB—western blot and IP—immunoprecipitation. Cells are lysed on ice in 1× Lysis Buffer (9803, Life Technologies) with complete protease inhibitor mixture (04693124001, Roche Applied Science). Animal tissues are homogenized in nine volumes of ice-cold PBS supplemented with protease inhibitors. Cytosolic and nuclear fractions are isolated using protocols similar to those described previously. Anti-Flag or TFEB antibody is added to the whole cell lysates and Dynabeads® Protein G (10003D, Life Technologies) is used for immunoprecipitation. Proteins are separated by 10-15% SDS-PAGE, transferred, and blotted with the antibodies described. The blots are then incubated with secondary antibodies or the Clean-Blot IP Detection Reagent (21230, Thermo Scientific) at room temperature for 1 h. The protein signals are detected by ECL kit (32106, Pierce) and quantified using ImageJ software. Hela cells stably expressing 3×Flag-TFEB are treated with C1 (1 μM) for 12 h. […]

human P301S tau = test: Oral treatment of P301S tau transgenic mice: Tau species in brain; format: in vivo; conditions: immunostaining of brain slices
N2a cells [2] = test: Lysosomal markers LAMP1 and CTSD by western blot in N2a cells; format: cell-based, mouse; conditions: 12 hours
Protocol: N2a cells are treated with different concentrations (0-1 μM) of E4 for 12 hours. Torin 1 (1 μM) is used as a positive control. The expression of LAMP1, pro-CTSD and mature CTSD (M-CTSD) are determined by western blotting (FIG. 25A) and quantified (FIG. 25B). Quantification data are presented as the mean±SD from three independent experiments. *p<0.05, **p<0.01 vs. the control (0.1% DMSO).
After transiently knockdown the expression of TFEB, N2a cells are treated with E4 (1 μM) for 12 hours, the expression of LAMP1, Pro-CTSD and mature CTSD (M-CTSD) are detected by Western blotting (FIG. 29A). Quantification data are presented as the mean±SD from three independent experiments FIG. 29B. **p<0.01 vs. the control (0.1% DMSO).
N2a and HeLa cells are cultured in DMEM supplemented with 10% FBS. HeLa cells stably expressing 3×-Flag-TFEB are maintained in DMEM supplemented with 10% FBS and 500 μg/mL G418. For drug treatment, the full medium is replaced by fresh Opti-MEM I containing the compounds (in 0.1% DMSO) and incubated for the indicated time periods.
(§1) N2a cells are transfected with mouse Tfeb siRNA and the non-target siRNA using Lipofectamine RNAiMAX (13778030, Invitrogen) and incubated at 37° C. for 72 hours.
Cells are lysed on ice in 1× Lysis Buffer (9803, Life Technologies) with complete protease inhibitor mixture (04693124001, Roche Applied Science) and phosphatase inhibitor (B15001, Biotool). Cytosolic and nuclear fractions are isolated using protocols similar to those described previously. Proteins are separated by 10-15% SDS-PAGE, transferred, and blotted with the antibodies described. The blots are then incubated with primary and secondary antibodies. The protein signals are detected by the ECL kit (32106, Pierce) and quantified using ImageJ software.

N2a cells [3] = test: LysoTracker Red staining of N2a cells (lysosomal pH); format: cell-based, mouse; conditions: 1 μM, 12 hours
Protocol: N2a cells are treated with E4 (1 μM) in the presence or absence of lysosome inhibitor CQ or Torin 1 for 12 hours, the cells are loaded with LysoTracker Red, followed by taking pictures under a fluorescence microscope (FIG. 26A). The relative fluorescent intensity is quantified by using image J software (FIG. 26B). Quantification data are presented as the mean±SD from three independent experiments (low panel). **p<0.01 vs. the control (0.1% DMSO). ## p<0.05 vs. the relative absence of CQ group.
After transiently knockdown the expression of TFEB, N2a cells are treated with E4 (1 μM) for 12 hours, lysosomal activities are then detected by LysoTracker Red staining (FIG. 30A). Quantification data (FIG. 30B) are presented as the mean±SD from three independent experiments. **p<0.01 vs. the control (0.1% DMSO). ## p<0.05 vs. the relative Si-NT group.
as §1
The lysosomal pH is estimated using LysoTracker Red following manufacturer's instructions. The fluorescence intensity is observed under a DeltaVision Deconvolution Microscope (GE Healthcare) and representative cells are selected and photographed. Quantification data are acquired using ImageJ software.

In the case of `COc1ccccc1/C=C/C(=O)/C=C/c1ccccc1OC` [C1, 1,5-bis(2-methoxyphenyl)penta-1,4-dien-3-one], the “MTOR and YWHA coimmunoprecipitated with Flag-TFEB compared with control” value [1] is reported as “decreased”, the “levels of endogenous MTOR and YWHA” value [1] is reported as “does not affect” and the “AT8 and PHF1 positive cells in the hippocampus and cortex” value (human P301S tau) is reported as “dramatically reduced”.

In the case of `O=C(/C=C/c1ccccc1I)/C=C/c1ccccc1I` [E4], the “levels of Pro-CTSD and mature CTSD (M-CTSD)” value (N2a cells [2]; 0-1 μM, dose-dependent manner) is reported as “increases”, the “levels of the lysosomal marker LAMP1” value (N2a cells [2]; 0-1 μM, dose-dependent manner) is reported as “significantly increases” and the “LAMP1, pro-CTSD and CTSD levels in control (non-target siRNA) cells” value (N2a cells [2]; 1 μM) is reported as “significantly increases”. For the same molecule, the “LysoTracker Red fluorescent intensity compared with vehicle control” value (N2a cells [3]) was “significantly increases” and the “induced increase in LysoTracker Red fluorescence intensity on co-treatment with CQ” value (N2a cells [3]; with CQ) was “abolishes”.
